The values below come from US20230263822A1, “MODULATION OF FACTOR 11 EXPRESSION” (Ionis Pharmaceuticals, Inc., priority 2008, published 2023).

Strand notation (5' to 3'): a small letter for the sugar, then the base; units joined by * are phosphorothioate-linked, units joined directly phosphodiester-linked; [ ] holds rarer units or linkages, { } end groups; capitals alone tell only the bases. e = 2'-O-(2-methoxyethyl) (MOE); [5mC] = 5-methylcytosine; d = 2'-deoxy (DNA)

Series [1] concerns human Factor 11 mRNA. Put plainly: Antisense inhibition of human Factor 11 in HepG2 cells, electroporation, 8,000 nM (Example 30). It is filed as cell-based. Particulars: electroporation, 8,000 nM antisense oligonucleotide. As to the method: These microwalk gapmers were tested in vitro. Cultured HepG2 cells at a density of 20,000 cells per well were transfected using electroporation with 8,000 nM antisense oligonucleotide. After a treatment period of approximately 24 hours, RNA was isolated from the cells and Factor 11 mRNA levels were measured by quantitative real-time PCR. Factor 11 mRNA levels were adjusted according to total RNA content, as measured by RIBOGREEN. Results are presented as percent inhibition of Factor 11, relative to untreated control cells.
The chimeric antisense oligonucleotides in Table 44 were designed as 5-10-5 MOE, 5-8-5 and 6-8-6 MOE gapmers. The first two listed gapmers in Table 44 are the original gapmers (ISIS 416850 and ISIS 416858) from which ISIS 445493-445543 were designed via microwalk, and are designated by an asterisk. The 5-10-5 gapmers are 20 nucleotides in length, wherein the central gap segment is comprised of ten 2′-deoxynucleotides and is flanked on both sides (in the 5′ and 3′ directions) by wings comprising five nucleotides each. The 5-8-5 gapmers are 18 nucleotides in length, wherein the central gap segment is comprised of eight 2′-deoxynucleotides and is flanked on both sides (in the 5′ and 3′ directions) by wings comprising five nucleotides each. The 6-8-6 gapmers are 20 nucleotides in length, wherein the central gap segment is comprised of eight 2′-deoxynucleotides and is flanked on both sides (in the 5′ and 3′ directions) by wings comprising six nucleotides each. For each of the motifs (5-10-5, 5-8-5 and 6-8-6), each nucleotide in the 5′ wing segment and each nucleotide in the 3′ wing segment has a 2′-MOE modification. The internucleoside linkages throughout each gapmer are phosphorothioate (P=S) linkages. All cytidine residues throughout each gapmer are 5-methylcytidines. “Human Target start site” indicates the 5′-most nucleotide to which the gapmer is targeted in the human sequence. “Human Target stop site” indicates the 3′-most nucleotide to which the gapmer is targeted in the human sequence. Each gapmer listed in Table 44 is targeted to SEQ ID NO: 1 (GENBANK Accession No. NM_000128.3). Each gapmer is Table 44 is also fully cross-reactive with the rhesus monkey Factor 11 gene sequence, designated herein as SEQ ID NO: 274 (exons 1-15 GENBANK Accession No. NW_001118167.1). ‘Rhesus monkey start site’ indicates the 5′-most nucleotide to which the gapmer is targeted in the rhesus monkey sequence. ‘Rhesus monkey stop site’ indicates the 3′-most nucleotide to which the gapmer is targeted to the rhesus monkey sequence.

Series [2] has as its system human Factor 11 mRNA. Put plainly: Antisense inhibition of human Factor 11 in HepG2 cells by microwalk gapmers, lipofectin, 75 nM (Example 3). Type of series: cell-based. Particulars: HepG2 cells, lipofectin, gapmers targeted to nucleobases 1275 to 1318 of SEQ ID NO: 1. The method in brief:
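HepG2 cells (10,000/well) were transfected via lipofectin with 75 nM 20-mer MOE gapmers (phosphorothioate, 5-methyl-C) for about 24 h. Factor 11 mRNA was measured by qRT-PCR, normalized to RIBOGREEN total RNA, and given as percent inhibition versus untreated cells.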

The % inhibition is the share of the control response that was lost under treatment. As for “416853 (antisense eT*eT*eG*eG*eT*dG*d[5mC]*dA*d[5mC]*dA*dG*dT*dT*dT*d[5mC]*eT*eG*eG*e[5mC]*eA) [compound 416853]”, in the series with human Factor 11 mRNA [1], the “Percent inhibition of human Factor 11 mRNA levels” value (shortened to “Percent inhibition”) came to 84%. In addition, the “% inhibition” value with human Factor 11 mRNA [2] is 91%.

For the substance “416854 (antisense eA*eT*eT*eG*eG*dT*dG*d[5mC]*dA*d[5mC]*dA*dG*dT*dT*dT*e[5mC]*eT*eG*eG*e[5mC]) [compound 416854]”, the “Percent inhibition” value with human Factor 11 mRNA [1] was determined as 86%. In the series on human Factor 11 mRNA [2], the “% inhibition” value is recorded as 90%.

Regarding “416855 (antisense e[5mC]*eA*eT*eT*eG*dG*dT*dG*d[5mC]*dA*d[5mC]*dA*dG*dT*dT*eT*e[5mC]*eT*eG*eG) [compound 416855]”, in the series with human Factor 11 mRNA [1], the “Percent inhibition” value is given as 85%. In addition, the “% inhibition” value with human Factor 11 mRNA [2] was found to be 87%.

Consider “416862 (antisense eA*eG*e[5mC]*eG*eG*dA*d[5mC]*dG*dG*d[5mC]*dA*dT*dT*dG*dG*eT*eG*e[5mC]*eA*e[5mC]) [compound 416862]”, for which the “Percent inhibition” value in the series with human Factor 11 mRNA [1] came to 89%. Further, in the series with human Factor 11 mRNA [2], the “% inhibition” value was 90%.

In the case of “416865 (antisense eT*eG*eG*e[5mC]*eA*dG*d[5mC]*dG*dG*dA*d[5mC]*dG*dG*d[5mC]*dA*eT*eT*eG*eG*eT) [compound 416865]”, in the series on human Factor 11 mRNA [1], the “Percent inhibition” value is 86%. Also, the “% inhibition” value with human Factor 11 mRNA [2] was determined as 88%.

Take “445508 (antisense eG*eG*eA*e[5mC]*eG*eG*d[5mC]*dA*dT*dT*dG*dG*dT*dG*e[5mC]*eA*e[5mC]*eA*eG*eT) [compound 445508]”: the “Percent inhibition” value with human Factor 11 mRNA [1] amounted to 81%.

In the case of “445510 (antisense eG*e[5mC]*eG*eG*eA*e[5mC]*dG*dG*d[5mC]*dA*dT*dT*dG*dG*eT*eG*e[5mC]*eA*e[5mC]*eA) [compound 445510]”, the “Percent inhibition” value in the series with human Factor 11 mRNA [1] was determined as 88%.

As to “445511 (antisense eA*eG*e[5mC]*eG*eG*eA*d[5mC]*dG*dG*d[5mC]*dA*dT*dT*dG*eG*eT*eG*e[5mC]*eA*e[5mC]) [compound 445511]”, the “Percent inhibition” value in the series on human Factor 11 mRNA [1] was 77%.

On to “445512 (antisense e[5mC]*eA*eG*e[5mC]*eG*eG*dA*d[5mC]*dG*dG*d[5mC]*dA*dT*dT*eG*eG*eT*eG*e[5mC]*eA) [compound 445512]”, for which the “Percent inhibition” value with human Factor 11 mRNA [1] is recorded as 79%.

Take “445514 (antisense eG*eG*e[5mC]*eA*eG*e[5mC]*dG*dG*dA*d[5mC]*dG*dG*d[5mC]*dA*eT*eT*eG*eG*eT*eG) [compound 445514]”: the “Percent inhibition” value in the series on human Factor 11 mRNA [1] was determined as 81%.

Consider “445515 (antisense eT*eG*eG*e[5mC]*eA*eG*d[5mC]*dG*dG*dA*d[5mC]*dG*dG*d[5mC]*eA*eT*eT*eG*eG*eT) [compound 445515]”, for which the “Percent inhibition” value in the series with human Factor 11 mRNA [1] is listed as 75%.

Consider “445516 (antisense e[5mC]*eT*eG*eG*e[5mC]*eA*dG*d[5mC]*dG*dG*dA*d[5mC]*dG*dG*e[5mC]*eA*eT*eT*eG*eG) [compound 445516]”, for which the “Percent inhibition” value in the series with human Factor 11 mRNA [1] is reported as 79%.

Take “445517 (antisense eA*e[5mC]*eT*eG*eG*e[5mC]*dA*dG*d[5mC]*dG*dG*dA*d[5mC]*dG*eG*e[5mC]*eA*eT*eT*eG) [compound 445517]”: in the series with human Factor 11 mRNA [1], the “Percent inhibition” value was found to be 74%.

On to “445518 (antisense eA*eG*eT*eT*eT*d[5mC]*dT*dG*dG*d[5mC]*dA*dG*dG*e[5mC]*e[5mC]*eT*e[5mC]*eG) [compound 445518]”, for which the “Percent inhibition” value in the series with human Factor 11 mRNA [1] is 75%.

Take “445519 (antisense e[5mC]*eA*eG*eT*eT*dT*d[5mC]*dT*dG*dG*d[5mC]*dA*dG*eG*e[5mC]*e[5mC]*eT*e[5mC]) [compound 445519]”: the “Percent inhibition” value in the series with human Factor 11 mRNA [1] came out at 81%.

As to “445520 (antisense eA*e[5mC]*eA*eG*eT*dT*dT*d[5mC]*dT*dG*dG*d[5mC]*dA*eG*eG*e[5mC]*e[5mC]*eT) [compound 445520]”, the “Percent inhibition” value in the series with human Factor 11 mRNA [1] came out at 82%.

Take “445521 (antisense e[5mC]*eA*e[5mC]*eA*eG*dT*dT*dT*d[5mC]*dT*dG*dG*d[5mC]*eA*eG*eG*e[5mC]*e[5mC]) [compound 445521]”: the “Percent inhibition” value in the series with human Factor 11 mRNA [1] is recorded as 87%.

As to “445523 (antisense eT*eG*e[5mC]*eA*e[5mC]*dA*dG*dT*dT*dT*d[5mC]*dT*dG*eG*e[5mC]*eA*eG*eG) [compound 445523]”, in the series on human Factor 11 mRNA [1], the “Percent inhibition” value came out at 73%.

In the case of “445524 (antisense eG*eT*eG*e[5mC]*eA*d[5mC]*dA*dG*dT*dT*dT*d[5mC]*dT*eG*eG*e[5mC]*eA*eG) [compound 445524]”, the “Percent inhibition” value with human Factor 11 mRNA [1] is reported as 75%.

Consider “445525 (antisense eG*eG*eT*eG*e[5mC]*dA*d[5mC]*dA*dG*dT*dT*dT*d[5mC]*eT*eG*eG*e[5mC]*eA) [compound 445525]”, for which the “Percent inhibition” value in the series with human Factor 11 mRNA [1] was 85%.

“445526 (antisense eT*eG*eG*eT*eG*d[5mC]*dA*d[5mC]*dA*dG*dT*dT*dT*e[5mC]*eT*eG*eG*e[5mC]) [compound 445526]”: the “Percent inhibition” value in the series with human Factor 11 mRNA [1] came to 81%.

For “445527 (antisense eT*eT*eG*eG*eT*dG*d[5mC]*dA*d[5mC]*dA*dG*dT*dT*eT*e[5mC]*eT*eG*eG) [compound 445527]”, the “Percent inhibition” value in the series with human Factor 11 mRNA [1] was found to be 70%.

Take “445528 (antisense eA*eT*eT*eG*eG*dT*dG*d[5mC]*dA*d[5mC]*dA*dG*dT*eT*eT*e[5mC]*eT*eG) [compound 445528]”: the “Percent inhibition” value in the series with human Factor 11 mRNA [1] stood at 73%.

Take “445529 (antisense e[5mC]*eA*eT*eT*eG*dG*dT*dG*d[5mC]*dA*d[5mC]*dA*dG*eT*eT*eT*e[5mC]*eT) [compound 445529]”: the “Percent inhibition” value in the series on human Factor 11 mRNA [1] was determined as 85%.

Turning to “445533 (antisense eA*e[5mC]*eG*eG*e[5mC]*dA*dT*dT*dG*dG*dT*dG*d[5mC]*eA*e[5mC]*eA*eG*eT) [compound 445533]”, the “Percent inhibition” value in the series with human Factor 11 mRNA [1] is 87%.

Regarding “445534 (antisense eG*eA*e[5mC]*eG*eG*d[5mC]*dA*dT*dT*dG*dG*dT*dG*e[5mC]*eA*e[5mC]*eA*eG) [compound 445534]”, the “Percent inhibition” value in the series with human Factor 11 mRNA [1] is on record as 82%.

As to “445535 (antisense eG*eG*eA*e[5mC]*eG*dG*d[5mC]*dA*dT*dT*dG*dG*dT*eG*e[5mC]*eA*e[5mC]*eA) [compound 445535]”, in the series on human Factor 11 mRNA [1], the “Percent inhibition” value was 83%.

On to “445536 (antisense e[5mC]*eG*eG*eA*e[5mC]*dG*dG*d[5mC]*dA*dT*dT*dG*dG*eT*eG*e[5mC]*eA*e[5mC]) [compound 445536]”, for which the “Percent inhibition” value in the series with human Factor 11 mRNA [1] stood at 82%.

Consider “445537 (antisense eG*e[5mC]*eG*eG*eA*d[5mC]*dG*dG*d[5mC]*dA*dT*dT*dG*eG*eT*eG*e[5mC]*eA) [compound 445537]”, for which, in the series on human Factor 11 mRNA [1], the “Percent inhibition” value worked out at 78%.

On to “445538 (antisense eA*eG*e[5mC]*eG*eG*dA*d[5mC]*dG*dG*d[5mC]*dA*dT*dT*eG*eG*eT*eG*e[5mC]) [compound 445538]”, for which the “Percent inhibition” value with human Factor 11 mRNA [1] is recorded as 80%.

Regarding “445539 (antisense e[5mC]*eA*eG*e[5mC]*eG*dG*dA*d[5mC]*dG*dG*d[5mC]*dA*dT*eT*eG*eG*eT*eG) [compound 445539]”, the “Percent inhibition” value with human Factor 11 mRNA [1] is 79%.

With “445540 (antisense eG*e[5mC]*eA*eG*e[5mC]*dG*dG*dA*d[5mC]*dG*dG*d[5mC]*dA*eT*eT*eG*eG*eT) [compound 445540]”, the “Percent inhibition” value in the series on human Factor 11 mRNA [1] stood at 74%.

Take “445541 (antisense eG*eG*e[5mC]*eA*eG*d[5mC]*dG*dG*dA*d[5mC]*dG*dG*d[5mC]*eA*eT*eT*eG*eG) [compound 445541]”: the “Percent inhibition” value with human Factor 11 mRNA [1] stood at 80%.

As to “445542 (antisense eT*eG*eG*e[5mC]*eA*dG*d[5mC]*dG*dG*dA*d[5mC]*dG*dG*e[5mC]*eA*eT*eT*eG) [compound 445542]”, the “Percent inhibition” value with human Factor 11 mRNA [1] is given as 83%.

As to “445543 (antisense e[5mC]*eT*eG*eG*e[5mC]*dA*dG*d[5mC]*dG*dG*dA*d[5mC]*dG*eG*e[5mC]*eA*eT*eT) [compound 445543]”, the “Percent inhibition” value in the series on human Factor 11 mRNA [1] was determined as 74%.
